This note sets out measurements from US20110223132A1, “ISOTHIAZOLOQUINOLONES AND RELATED COMPOUNDS AS ANTI-INFECTIVE AGENTS” (priority 2003, published 2011).

Data set [1] has as its system S. aureus ATCC 29213. The data set can be described thus: Minimum inhibitory concentration (MIC) assay, broth microdilution. The data set is classed as cell-based. The conditions noted are these: Staphylococcus aureus, ATCC29213; S. aureus ATCC 29213, Mueller-Hinton II broth, 37° C., 18 to 24 hours. On the procedure:
(§1) The antimicrobial activity of the compounds of the invention may be evaluated by a number of methods, including the following visual minimum inhibitory concentration (MIC) assay. This assay determines the minimum concentration of compound required to inhibit growth of a bacterial strain. Whole-cell antibacterial activity is determined by broth microdilution using conditions recommended by the NCCLS (see National Committee for Clinical Laboratory Standards. 2001. Performance standards for antimicrobial susceptibility testing: 11th informational supplement. Vol. 21, no. 1, M100-S11. National Committee for Clinical Laboratory Standards, Wayne, Pa.). Test compounds are dissolved in DMSO and diluted 1:50 in Mueller-Hinton II broth (Becton-Dickinson) to produce a 256 μg/ml stock solution. In a 96-well microtiter plate, the compound solution is serially two-fold diluted in Mueller-Hinton II broth. After the compounds are diluted, a […] aliquot of the test organism (˜1×10^6 cfu/mL) is added to each well of the microtiter plate. The final test concentrations range from 0.125-128 μg/mL Inoculated plates are incubated in ambient air at 37° C. for 18 to 24 hours. The organisms selected for testing included laboratory strains S. aureus ATCC 29213 and E. coli ATCC 25922 (strains purchased from American Type Culture Collection, Manassas, Va.). The minimum inhibitory concentration (MIC) was determined as the lowest concentration of compound that inhibited visible growth of the test organism.

The test system of data set [2] is E. coli ATCC 25922. Described as above. The conditions noted are these: Escherichia coli, ATCC25922; E. coli ATCC 25922, Mueller-Hinton II broth, 37° C., 18 to 24 hours. The data set is classed as cell-based. On the procedure:
as §1

A short description of data set [3]: Compound cytotoxicity, cell viability staining with Alamar Blue. It counts as cell-based. The conditions noted are these: Chinese hamster, CHO cells (Chinese hamster ovary), positive control.
Description: (§2) Optimal cell density is first determined by plating cells in a 96-well plate standard sterile tissue culture plates in 100 μl media, 10% FBS at six cell densities from 500 cells/well to 15,000 cells/well. A cell free well containing only media is used as a control. Cells are incubated at 37° C. in a 5% CO2 incubator for 24 hours. 10% culture volume (10 ul) of Alamar Blue (Biosource, DAL1100, 100 mL) is then added. Cells are incubated at 37° C. in a 5% CO2 incubator and read in a Victor V plate reader, 544 nm excitation, 590 nm emission, at 3, 4, and 24 hours after the addition of Alamar Blue. The cell number vs. change in fluorescence is plotted to determine linearity of signal vs. cell number. The optimal density varies between 500-15,000 cells/well depending on the specific cell type. The optimal density is selected based on the highest number of cells that is still in the linear response range. Cells are plated at optimal cell density in a standard sterile tissue culture 96 well plate, and incubated at 37° C., O/N in a 5% CO2 incubator. 12 to 48 hours post-plating media is removed. […] Plates are incubated 4 hours at 37° C. in a 5% CO2 incubator and read in a Victor V plate reader, 544 nm excitation, 590 nm emission. […] The change in fluorescence vs. concentration of test compound is plotted to determine the cytotoxicity of the compound.
Test in data set [4]: as above
Description: as §2
The data set is classed as cell-based. The conditions noted are these: human, Hep 2 cells (laryngeal carcinoma), positive control.

The structures appear in SMILES notation. Converted amounts (≈) assume the structure as drawn. Some results are limits rather than exact numbers.

For `O=c1[nH]sc2c1c(=O)c1cc(F)c(C3=CCNCC3)cc1n2C1CC1`, the melting point is > 241 °C (dec.).

On to `NC1CCc2cc(-c3cc4c(cc3F)c(=O)c3c(=O)[nH]sc3n4C3CC3)ccc2C1` (racemic) [Compound 31, (Rac)-7-(6-Amino-5,6,7,8-Tetrahydronaphthalen-2-Yl)-9-Cyclopropyl-6-Fluoro-9H-Isothiazolo[5,4-B]Quinoline-3,4-Dione], for which the melting point was > 257 °C (dec.).

`O=c1[nH]sc2c1c(=O)c1cc(F)c(-c3ccccc3)cc1n2C1CC1` [Compound 32, 9-Cyclopropyl-6-fluoro-7-phenyl-9H-isothiazolo[5,4-b]quinoline-3,4-dione]: the minimal inhibitory concentration (MIC) came out at 0.007 µg/mL (≈ 0.0199 µM) in data set [1] and 0.06 µg/mL (≈ 0.17 µM) in data set [2].

Turning to `O=c1[nH]sc2c1c(=O)c1cc(F)c(-c3cccnc3)cc1n2C1CC1` [Compound 33, 9-Cyclopropyl-6-fluoro-7-pyridin-3-yl-9H-isothiazolo [5,4-b]quinoline-3,4-dione], the MIC came to 0.007 µg/mL (≈ 0.0198 µM) in data set [1] and 0.003 µg/mL (≈ 0.00849 µM) in data set [2].

In the case of `O=C(O)c1cccc(-c2cc3c(cc2F)c(=O)c2c(=O)[nH]sc2n3C2CC2)c1` [Compound 34, 3-(9-Cyclopropyl-6-fluoro-3,4-dioxo-2,3,4,9-tetrahydro-isothiazolo[5,4-b]quinolin-7-yl)-benzoic acid], the MIC in data set [1] came to 0.125 µg/mL (≈ 0.315 µM); in data set [2], 1 µg/mL (≈ 2.52 µM).

Consider `CCOc1cccc(-c2cc3c(cc2F)c(=O)c2c(=O)[nH]sc2n3C2CC2)c1` [Compound 35, 9-Cyclopropyl-7-(3-ethoxy-phenyl)-6-fluoro-9H-isothiazolo[5,4-b]quinoline-3,4-dione], for which the MIC in data set [1] is 0.03 µg/mL (≈ 0.0757 µM); in data set [2] it was 1 µg/mL (≈ 2.52 µM).

Take `CC(C)(C)c1ccc(C(O)CCCN2CCC(C(O)(c3ccccc3)c3ccccc3)CC2)cc1` (stereo not drawn) [Terfenadine]: the figures for the CC50 in data set [3] and in data set [4] were 4.3 to 6.5 µM and 3 to 5 µM, respectively.
